Tests used:
[1] = tested on: CAL-120; settings: 72 h
Summary of the method: (§1)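 Breast cancer cell lines in 20 µl suspension were seeded onto 384-well plates that already held compound dissolved in 5 µl medium and were incubated for 72 h. Viability was measured by adding 2.5 µl CellTiter-Blue for 2 h at 37 °C and reading fluorescence at 560/590 nm. Each plate was normalised to vehicle and a positive kill control and checked by Z'-factor. EC50 was taken from a fitted percent-inhibition dose-response curve, censored at the highest concentration, and rows with a drug sensitivity score of zero were removed.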

[2] = tested on: HCC1937; settings: 72 h
Summary of the method: as §1

[3] = tested on: HCC1143; settings: 72 h
Summary of the method: as §1

[4] = tested on: HCC1599; settings: 72 h
Summary of the method: as §1

[5] = tested on: BT-549; settings: 72 h
Summary of the method: as §1

[6] = tested on: Hs578T; settings: 72 h
Summary of the method: as §1

[7] = tested on: SK-BR-3; settings: 72 h
Summary of the method: as §1

[8] = tested on: MDA-MB-468; settings: 72 h
Summary of the method: as §1

[9] = tested on: MDA-MB-436; settings: 72 h
Summary of the method: as §1

[10] = tested on: MDA-MB-231; settings: 72 h
Summary of the method: as §1

[11] = tested on: CAL-51; settings: 72 h
Experimental: (§2)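 Drug sensitivity and resistance testing (DSRT) of breast cancer cell lines in 384-well plates, 5 concentrations in 10-fold dilutions over a compound-specific 10,000-fold range. After 72 h, cytotoxicity was read by CellTox Green fluorescence and viability by CellTiter-Glo luminescence (multiplexed), normalised to DMSO and benzethonium chloride controls. EC50 is the inflection point of the fitted dose-response curve (bottom asymptote free, so it can be relative for partial curves) and is censored at the highest tested concentration. Rows with DSS 0 (no meaningful response) were excluded.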

[12] = tested on: CAL-85-1; settings: 72 h
Experimental: as §2

[13] = tested on: HDQ-P1; settings: 72 h
Experimental: as §2

[14] = tested on: CAL-120; settings: 72 h; remark: listed apart in the source
Summary of the method: (§3)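 Breast cancer cell lines in 20 µl suspension were added to 384-well plates already holding compound at 5 concentrations, spaced in 10-fold steps across a compound-specific 10,000-fold range, and incubated for 72 h. CellTox Green fluorescence (485/520 nm) was read first to measure cell death, followed by CellTiter-Glo luminescence for viability after 10 min at room temperature. Each plate was normalised to 0.1 % DMSO and a positive kill control. EC50 values came from dose-response curve fits and were censored at the top concentration.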

[15] = tested on: CAL-51; settings: 72 h; remark: listed apart in the source
Summary of the method: as §3

[16] = tested on: HCC1937; settings: 72 h; remark: listed apart in the source
Summary of the method: as §3

[17] = tested on: DU-4475; settings: 72 h
Summary of the method: as §3

[18] = tested on: CAL-85-1; settings: 72 h; remark: listed apart in the source
Summary of the method: as §3

[19] = tested on: HCC1599; settings: 72 h; remark: listed apart in the source
Summary of the method: as §3

[20] = tested on: Hs578T; settings: 72 h; remark: listed apart in the source
Summary of the method: as §3

[21] = tested on: SK-BR-3; settings: 72 h; remark: listed apart in the source
Summary of the method: as §3

[22] = tested on: BT-474; settings: 72 h
Summary of the method: as §3

[23] = tested on: MDA-MB-468; settings: 72 h; remark: listed apart in the source
Summary of the method: as §3

[24] = tested on: MDA-MB-436; settings: 72 h; remark: listed apart in the source
Summary of the method: as §3

[25] = tested on: MDA-MB-231; settings: 72 h; remark: listed apart in the source
Summary of the method: as §3

[26] = tested on: CAL-120; test: normalised response (% of control), CellTiter-Glo; higher = more viable cells (100 = DMSO, 0 = benzethonium chloride kill control); settings: incubation time: 72 h
Summary of the method: (§4)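 Plates were normalised with 0.1 % DMSO as 100 and a positive kill control as 0. Breast cancer cell lines in 20 µl suspension had been seeded into 384-well plates with compound at 5 concentrations in 10-fold steps over a compound-specific 10,000-fold range, incubated 72 h, and read for CellTox Green fluorescence (485/520 nm) followed by CellTiter-Glo luminescence. Each value is the normalised signal at a single concentration.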

[27] = tested on: CAL-85-1; test: as above; settings: incubation time: 72 h
Summary of the method: as §4

[28] = tested on: BT-549; test: as above; settings: incubation time: 72 h
Summary of the method: as §4

[29] = tested on: SK-BR-3; test: as above; settings: incubation time: 72 h
Summary of the method: as §4

[30] = tested on: CAL-148; test: as above; settings: incubation time: 72 h
Summary of the method: as §4

[31] = tested on: BT-549; settings: 72 h; remark: listed apart in the source
Summary of the method: as §3

[32] = tested on: DU-4475; settings: 72 h; remark: listed apart in the source
Experimental: as §2

[33] = tested on: MCF-10A; settings: 72 h
Summary of the method: as §3

[34] = tested on: HDQ-P1; settings: 72 h; remark: listed apart in the source
Summary of the method: as §3

[35] = tested on: MFM-223; settings: 72 h
Summary of the method: as §1

[36] = tested on: BT-474; settings: 72 h; remark: listed apart in the source
Summary of the method: as §1

[37] = tested on: MCF-10A; settings: 72 h; remark: listed apart in the source
Experimental: as §2

[38] = tested on: Hs578T; settings: 72 h; remark: listed apart in the source
Experimental: as §2

[39] = tested on: BT-474; settings: 72 h; remark: listed apart in the source
Experimental: as §2

[40] = tested on: MDA-MB-231; settings: 72 h; remark: listed apart in the source
Experimental: as §2

[41] = tested on: CAL-148; settings: 72 h
Experimental: as §2

[42] = tested on: HCC1143; settings: 72 h; remark: listed apart in the source
Summary of the method: as §3

[43] = tested on: MFM-223; settings: 72 h; remark: listed apart in the source
Summary of the method: as §3

[44] = tested on: MDA-MB-453; settings: 72 h
Summary of the method: as §3

[45] = tested on: CAL-148; settings: 72 h; remark: listed apart in the source
Summary of the method: as §3

| Compound | EC50, CellTiter-Blue viability [2] | EC50, CellTiter-Blue viability [3] | EC50, CellTiter-Blue viability [4] | EC50, CellTiter-Blue viability [5] | EC50, CellTiter-Blue viability [7] | EC50, CellTiter-Blue viability [8] | EC50, CellTiter-Blue viability [9] | EC50, CellTiter-Blue viability [10] | EC50, CellTiter-Glo [16] | EC50, CellTiter-Glo [19] | EC50, CellTiter-Glo [22] | EC50, CellTiter-Blue viability [1] | EC50, CellTiter-Blue viability [6] | EC50, CellTox Green [11] | EC50, CellTox Green [12] | EC50, CellTox Green [13] | EC50, CellTiter-Glo [14] | EC50, CellTiter-Glo [15] | EC50, CellTiter-Glo [17] | EC50, CellTiter-Glo [18] | further results |
| --- | --- | --- | --- | --- | --- | --- | --- | --- | --- | --- | --- | --- | --- | --- | --- | --- | --- | --- | --- | --- | --- |
| CCCC(CCC)C(=O)O [Valproic acid] (10000 nM) |  |  |  |  |  |  |  |  |  |  |  |  |  |  |  |  |  |  |  |  | normalised response [26]: 111%; normalised response [27]: 100%; normalised response [28]: 107%; normalised response [29]: 96.1%; normalised response [30]: 87% |
| COc1cc(Nc2ncc(F)c(Nc3ccc4c(n3)NC(=O)C(C)(C)O4)n2)cc(OC)c1OC [Tamatinib] |  |  |  |  |  |  |  |  |  |  |  |  |  |  |  |  |  | 2310 nM |  |  | EC50, CellTiter-Glo [31]: 650 nM |

Continued, in another order:

| EC50, CellTiter-Blue viability [2] | EC50, CellTiter-Blue viability [3] | EC50, CellTiter-Blue viability [4] | EC50, CellTiter-Blue viability [5] | EC50, CellTiter-Blue viability [7] | EC50, CellTiter-Blue viability [8] | EC50, CellTiter-Blue viability [9] | EC50, CellTiter-Blue viability [10] | EC50, CellTiter-Glo [16] | EC50, CellTiter-Glo [19] | EC50, CellTiter-Glo [22] | Compound | EC50, CellTiter-Blue viability [1] | EC50, CellTiter-Blue viability [6] | EC50, CellTox Green [11] | EC50, CellTox Green [12] | EC50, CellTox Green [13] | EC50, CellTiter-Glo [14] | EC50, CellTiter-Glo [15] | EC50, CellTiter-Glo [17] | EC50, CellTiter-Glo [18] | further results |
| --- | --- | --- | --- | --- | --- | --- | --- | --- | --- | --- | --- | --- | --- | --- | --- | --- | --- | --- | --- | --- | --- |
| 4070 nM | 1630 nM | > 10000 nM | 804 nM | 60.3 nM | 48.9 nM | 182 nM | 494 nM | 211 nM | 27 nM | 555 nM | O=c1[nH]c(=O)n([C@H]2C[C@H](O)[C@@H](CO)O2)cc1F [Floxuridine] | 118 nM | 501 nM | 734 nM | 4650 nM | 3070 nM | 420 nM | 80.3 nM | 1580 nM | 79.5 nM | EC50, CellTiter-Glo [20]: 34 nM; EC50, CellTiter-Glo [21]: 96.6 nM; EC50, CellTiter-Glo [23]: 240 nM; EC50, CellTiter-Glo [24]: 57.7 nM; EC50, CellTiter-Glo [25]: 687 nM |
|  | 9.21 nM | 106 nM |  |  |  |  | 364 nM |  |  | 113 nM | Cn1cnc2c(F)c(Nc3ccc(Br)cc3F)c(C(=O)NOCCO)cc21 [MEK-162] |  |  |  |  | 123 nM | > 1000 nM |  | 78.7 nM |  | EC50, CellTox Green [32]: 508 nM; EC50, CellTiter-Glo [33]: 11.8 nM; EC50, CellTiter-Glo [34]: 13.5 nM |
| 87.1 nM | 64 nM | 721 nM | 44.8 nM | 28 nM | 353 nM | 429 nM | 177 nM | 157 nM | 190 nM | 421 nM | COc1c(C)cnc(Cn2cnc3c(Cl)nc(N)nc32)c1C [BIIB021] | 26.9 nM | 47 nM | 758 nM | 3950 nM | 1960 nM | 247 nM | 227 nM | 329 nM | 308 nM | EC50, CellTiter-Blue viability [35]: 57.7 nM; EC50, CellTiter-Blue viability [36]: 93.7 nM; EC50, CellTox Green [32]: 293 nM; EC50, CellTox Green [37]: 189 nM; EC50, CellTox Green [38]: 321 nM; EC50, CellTox Green [39]: 1790 nM; EC50, CellTox Green [40]: 928 nM; EC50, CellTox Green [41]: 84.5 nM; EC50, CellTiter-Glo [42]: 416 nM; EC50, CellTiter-Glo [31]: 92.6 nM; EC50, CellTiter-Glo [43]: 192 nM; EC50, CellTiter-Glo [33]: 354 nM; EC50, CellTiter-Glo [20]: 756 nM; EC50, CellTiter-Glo [21]: 13.7 nM; EC50, CellTiter-Glo [44]: 153 nM; EC50, CellTiter-Glo [23]: 370 nM; EC50, CellTiter-Glo [24]: 141 nM; EC50, CellTiter-Glo [25]: 483 nM; EC50, CellTiter-Glo [34]: 242 nM; EC50, CellTiter-Glo [45]: 199 nM |
